Numbers after ± are expanded uncertainties.
Tests used:
[1] = 101.33 kPa, Liquid, Vibrating tube method
[2] = refractive index (Na D-line) (dimensionless); conditions: 101.33 kPa, Liquid, Standard Abbe refractometry

Row | Compound | mass density ([1]; 293.15 K) [kg/m3] | mass density ([1]; 298.15 K) [kg/m3] | mass density ([1]; 313.15 K) [kg/m3] | mass density ([1]; 333.15 K) [kg/m3] | refractive index ([2]; 293.15 K) | refractive index ([2]; 298.15 K) | refractive index ([2]; 313.15 K) | refractive index ([2]; 333.15 K)
1 | CC(=O)[O-].CCCCCCCCCCCCCC[P+](CCCCCC)(CCCCCC)CCCCCC [trihexyl(tetradecyl)phosphonium acetate] | 894.5 ± 2.1 | 891.3 ± 2.1 | 882.3 ± 2.1 | 870.4 ± 2.1 | 1.48377 ± 0.00087 | 1.48176 ± 0.00085 | 1.47674 ± 0.00084 | 1.47072 ± 0.00083
2 | CC(=O)[O-].CCCCn1cc[n+](C)c1 [1-butyl-3-methylimidazolium acetate] | 1056.2 ± 2.2 | 1053.2 ± 2.2 | 1044 ± 2.2 | 1032.2 ± 2.2 | 1.49481 ± 0.0008 | 1.49381 ± 0.00083 | 1.48879 ± 0.00083 | 1.48377 ± 0.00081
3 | CCCCCCCCCCCCCCn1cc[n+](C)c1.O=S(=O)([N-]S(=O)(=O)C(F)(F)F)C(F)(F)F | – | – | 1200.6 ± 2 | 1184 ± 2 | – | – | 1.43456 ± 0.00076 | 1.42854 ± 0.00076
4 | CCCCCCCCCCCCCC[P+](CCCCCC)(CCCCCC)CCCCCC.O=S(=O)([O-])C(F)(F)F | 985.6 ± 2 | 982.3 ± 2 | 972.5 ± 2 | 959.6 ± 2 | 1.45967 ± 0.0008 | 1.45766 ± 0.00075 | 1.45365 ± 0.00076 | 1.44662 ± 0.00078
5 | CCCCCC[n+]1ccn(C)c1.O=S(=O)([N-]S(=O)(=O)C(F)(F)F)C(F)(F)F | 1375.5 ± 2.1 | 1371 ± 2.1 | 1357.2 ± 2.1 | 1339.1 ± 2.1 | 1.43155 ± 0.0008 | 1.42954 ± 0.00075 | 1.42552 ± 0.00074 | 1.4205 ± 0.00074
6 | CCn1cc[n+](C)c1.O=S(=O)([N-]S(=O)(=O)C(F)(F)F)C(F)(F)F | 1519.7 ± 2.1 | 1514.7 ± 2.1 | 1499.6 ± 2.1 | 1479.7 ± 2.1 | 1.42351 ± 0.00072 | 1.42251 ± 0.00074 | 1.41849 ± 0.00074 | 1.41346 ± 0.00074
7 | CCCCCCn1cc[n+](C)c1.F[P-](F)(F)(F)(F)F [1-hexyl-3-methylimidazolium hexafluorophosphate] | 1296.4 ± 2 | 1292.4 ± 2 | 1280.4 ± 2 | 1264.9 ± 2 | 1.41849 ± 0.0008 | 1.41648 ± 0.00073 | 1.41346 ± 0.00073 | 1.40844 ± 0.00074
8 | CCCCn1cc[n+](C)c1.F[P-](F)(F)(F)(F)F [1-butyl-3-methylimidazolium hexafluorophosphate] | 1367.9 ± 2.1 | 1363.7 ± 2.1 | 1351.3 ± 2.1 | 1334.9 ± 2.1 | 1.41045 ± 0.0008 | 1.40844 ± 0.00073 | 1.40543 ± 0.00073 | 1.4004 ± 0.00074
9 | CCCC[n+]1ccn(C)c1.O=S(=O)([N-]S(=O)(=O)C(F)(F)F)C(F)(F)F | 1440.8 ± 2.1 | 1436 ± 2.1 | 1421.6 ± 2.1 | 1402.6 ± 2.1 | 1.42853 ± 0.0008 | 1.42653 ± 0.00075 | 1.42251 ± 0.00075 | 1.41648 ± 0.00076
10 | CCCCn1cc[n+](C)c1.O=S(=O)([O-])C(F)(F)F [1-butyl-3-methylimidazolium trifluoromethanesulfonate] | 1303.5 ± 2 | 1299.5 ± 2 | 1287.7 ± 2 | 1272.1 ± 2 | 1.43758 ± 0.00072 | 1.43657 ± 0.00076 | 1.43155 ± 0.00076 | 1.42552 ± 0.00076
11 | CCCCCCCC[n+]1ccn(C)c1.F[P-](F)(F)(F)(F)F [1-octyl-3-methylimidazolium hexafluorophosphate] | 1237.8 ± 2 | 1234 ± 2 | 1222.4 ± 2 | 1207.5 ± 2 | 1.42452 ± 0.00072 | 1.42351 ± 0.00074 | 1.41949 ± 0.00075 | 1.41347 ± 0.00076
12 | CCCCn1cc[n+](C)c1.F[B-](F)(F)F [1-butyl-3-methylimidazolium tetrafluoroborate] | 1202.9 ± 2 | 1199.4 ± 2 | 1188.7 ± 2 | 1174.6 ± 2 | 1.42251 ± 0.00072 | 1.4215 ± 0.00074 | 1.41748 ± 0.00074 | 1.41246 ± 0.00074
13 | CCCCn1cc[n+](C)c1.COS(=O)(=O)[O-] [1-butyl-3-methylimidazolium methyl sulfate] | 1214.7 ± 2 | 1211.3 ± 2 | 1201.5 ± 2 | 1188.4 ± 2 | 1.47876 ± 0.00072 | 1.47775 ± 0.00072 | 1.47473 ± 0.00073 | 1.46971 ± 0.00074
14 | CCCCCCCCCCCCn1cc[n+](C)c1.O=S(=O)([N-]S(=O)(=O)C(F)(F)F)C(F)(F)F | 1249 ± 2 | 1244.7 ± 2 | 1231.8 ± 2 | 1215.1 ± 2 | 1.43958 ± 0.0008 | 1.43758 ± 0.00075 | 1.43356 ± 0.00075 | 1.42754 ± 0.00076
15 | CCCCCCCCCCn1cc[n+](C)c1.O=S(=O)([N-]S(=O)(=O)C(F)(F)F)C(F)(F)F | 1282.8 ± 2 | 1278.3 ± 2 | 1265.3 ± 2 | 1248.2 ± 2 | 1.43658 ± 0.00072 | 1.43557 ± 0.00076 | 1.43055 ± 0.00076 | 1.42452 ± 0.00076
16 | CCCCCCCCCCCCCC[P+](CCCCCC)(CCCCCC)CCCCCC.O=S(=O)([N-]S(=O)(=O)C(F)(F)F)C(F)(F)F | 1069.1 ± 2 | 1065.4 ± 2 | 1054.5 ± 2 | 1039.9 ± 2 | 1.45164 ± 0.0008 | 1.44963 ± 0.00075 | 1.44561 ± 0.00076 | 1.43858 ± 0.00078
17 | CCCCCCCCn1cc[n+](C)c1.O=S(=O)([N-]S(=O)(=O)C(F)(F)F)C(F)(F)F | 1323.4 ± 2.1 | 1318.9 ± 2.1 | 1305.5 ± 2.1 | 1288 ± 2 | 1.43457 ± 0.0008 | 1.43256 ± 0.00075 | 1.42854 ± 0.00075 | 1.42251 ± 0.00076

— the NIST ThermoML archive (doi:10.1016/j.jct.2009.01.012)
